Measured values reported in patent US9505734B2, “Phenyl C-glucoside derivative containing deoxyglucose structure, preparation method and use thereof” (Tianjin Institute of Pharmaceutical Research, priority 2012, dated 2016).

test system: SD rats (type 2 diabetes model); assay: model for rat urine glucose excretion (glucose-oxidase method); format: in vivo; conditions: comparison in words, rat urine glucose excretion model, 6 mg/kg
Protocol: The health SD rats are injected intraperitoneally with multiple low doses of streptozotocin for modeling (type 2 diabetes model) after feeding with high-fat and high-sucrose diet, and the content of blood glucose is measured before and after modeling. After the modeling successful, the rats for modeling are randomly divided (8 rats/group) into one blank group (administering the same volume of 0.5% CMC sodium solution) and several groups for compounds to be tested (6 mg/kg) according to the content of 24-hour urine glucose and the body weight. Rats in each group are fasted for 16 hours before experiment. The experimental rats are administered intragastrically with glucose (2 g/kg) at 0.5 h after intragastrical administration with compounds to be tested. The urine is collected at the time-period of 0-12 h after administration, and the urine glucose values are measured at each time-period by glucose-oxidase method.
The inhibiting activity of the cocrystal of I-D1-6 and L-proline on SGLT2 is measured by the model for rat urine glucose excretion.
The health SD rats are injected intraperitoneally with multiple low doses of streptozotocin for modeling (type 2 diabetes model) after feeding with high-fat and high-sucrose diet for one month, and the content of blood glucose is measured before and after modeling. After the modeling successful, the rats for modeling are randomly divided (8 rats/group) into one blank group (administering the same volume of 0.5% CMC sodium solution) and groups of tested compound (6 mg/kg) according to the content of 24-hour urine glucose and the body weight. Rats in each group are fasted for 16 hours before experiment. The experimental rats are administered intragastrically with the glucose (2 g/kg) at 0.5 h after intragastrical administration with the cocrystal of I-D1-6 and L-proline prepared in Example 138. The urine is collected at the time-period of 0-12 h after administration, and the urine glucose values are measured at each time-period by glucose-oxidase method.

| SMILES | urine glucose excretion effect (in words) |
| --- | --- |
| CCOc1ccc(Cc2cc([C@@H]3C[C@@H](O)[C@H](O)[C@@H](CO)O3)ccc2Cl)cc1 [I-D1-2, (1S)-1-[4-chloro-3-(4-ethoxybenzyl)phenyl]-1,2-dideoxy-D-glucose] | stronger urine glucose excretion effect |
| CCOc1ccc(Cc2cc([C@@H]3O[C@H](CO)[C@@H](O)C[C@H]3O)ccc2Cl)cc1 [I-D1-3, (1S)-1-[4-chloro-3-(4-ethoxybenzyl)phenyl]-1,3-dideoxy-D-glucose] | stronger urine glucose excretion effect |
| CCOc1ccc(Cc2cc([C@@H]3O[C@H](CO)C[C@H](O)[C@H]3O)ccc2Cl)cc1 [I-D1-4, (1S)-1-[4-chloro-3-(4-ethoxybenzyl)phenyl]-1,4-dideoxy-D-glucose] | stronger urine glucose excretion effect |

same assay, conditions: type 2 diabetes model SD rats, 6 mg/kg intragastrically, glucose 2 g/kg at 0.5 h, urine collected 0-12 h

| SMILES | Urine glucose excretion (mg/200 g body weight of the rat) |
| --- | --- |
| CCc1ccc(Cc2cc(C3OC4(CC4)C(O)C(O)C3O)ccc2C)cc1 (stereo not drawn) | 609 mg/200 g body weight of the rat |
| C=C1OC(c2ccc(Cl)c(Cc3ccc(OCC)cc3)c2)C(O)C(O)C1O (stereo not drawn) | 457 mg/200 g body weight of the rat |
| CCOc1ccc(Cc2cc(C3OC(OC)C(O)C(O)C3O)ccc2Cl)cc1 (stereo not drawn) | 644 mg/200 g body weight of the rat |
| COc1ccc(Cc2cc(C3OC(C)C(O)C(O)C3O)ccc2C(F)(F)F)c(F)c1F (stereo not drawn) | 622 mg/200 g body weight of the rat |
| CCOc1ccc(Cc2cc(C3OC(C)C(O)C(O)C3O)ccc2OC)cc1 (stereo not drawn) | 688 mg/200 g body weight of the rat |
| COc1ccc(Cc2cc(C(C)C)cc(C3OC(C)C(O)C(O)C3O)c2)c(F)c1 (stereo not drawn) | 523 mg/200 g body weight of the rat |
| C#Cc1ccc(Cc2cc(C3OC(C)C(O)C(O)C3O)ccc2Cl)cc1 (stereo not drawn) | 671 mg/200 g body weight of the rat |
| CCc1ccc(Cc2cc(C3OC(C)C(O)C(O)C3O)ccc2C)cc1 (stereo not drawn) | 613 mg/200 g body weight of the rat |
| COc1ccc(Cc2cc(C3OC(CO)CC(O)C3O)ccc2Cl)cc1 (stereo not drawn) | 310 mg/200 g body weight of the rat |
| C#Cc1ccc(Cc2cc(C3OC(CO)CC(O)C3O)ccc2OC)cc1 (stereo not drawn) | 328 mg/200 g body weight of the rat |
| CCc1ccc(Cc2cc(C3OC(CO)C(O)CC3O)ccc2C)cc1 (stereo not drawn) | 230 mg/200 g body weight of the rat |
| CCOc1ccc(Cc2cc(C3OC(C)(C)C(O)C(O)C3O)ccc2Cl)cc1 (stereo not drawn) | 470 mg/200 g body weight of the rat |
| C=C1OC(c2ccc(Cl)c(Cc3ccc(OC)cc3)c2)C(O)C(O)C1O (stereo not drawn) | 410 mg/200 g body weight of the rat |
| CCCCOc1ccc(Cc2cc(C3OC(C)C(O)C(O)C3O)ccc2Cl)cc1 (stereo not drawn) | 721 mg/200 g body weight of the rat |
| COc1ccc(Cc2cc(C)cc(C3OC(C)C(O)C(O)C3O)c2)cc1F (stereo not drawn) | 539 mg/200 g body weight of the rat |
| CCc1ccc(Cc2cc(C3OC(C)C(O)C(O)C3O)ccc2OC)cc1 (stereo not drawn) | 439 mg/200 g body weight of the rat |
| COc1ccc(Cc2cc(C3OC(CO)CC(O)C3O)ccc2Cl)c(F)c1 (stereo not drawn) | 288 mg/200 g body weight of the rat |
| C#Cc1ccc(Cc2cc(C3OC(CO)CC(O)C3O)ccc2Cl)cc1 (stereo not drawn) | 213 mg/200 g body weight of the rat |
| CCc1ccc(Cc2cc(C3CC(O)C(O)C(CO)O3)ccc2C)cc1 (stereo not drawn) | 378 mg/200 g body weight of the rat |
| CCc1ccc(Cc2cc(C3OC(CO)C(O)CC3O)ccc2Cl)cc1 (stereo not drawn) | 198 mg/200 g body weight of the rat |
| COc1ccc(Cc2cc(C3OC(CO)C(O)CC3O)ccc2Cl)cc1 (stereo not drawn) | 235 mg/200 g body weight of the rat |
| Cc1ccc(C2OC(C)C(O)C(O)C2O)cc1Cc1ccc(OC2CCOC2)cc1 (stereo not drawn) | 611 mg/200 g body weight of the rat |
| CCc1ccc(Cc2cc(C3CC(O)C(O)C(CO)O3)ccc2Cl)cc1 (stereo not drawn) | 412 mg/200 g body weight of the rat |
| COc1ccc(Cc2cc(C3CC(O)C(O)C(CO)O3)ccc2Cl)cc1 (stereo not drawn) | 426 mg/200 g body weight of the rat |

| SMILES | Urine glucose excretion (mg/200 g body weight of the rat) |
| --- | --- |
| CCOc1ccc(Cc2cc(C3OC(CO)C(O)C(O)C3O)ccc2Cl)cc1 (stereo not drawn) [drawing 194] | 743 mg/200 g body weight of the rat |
| OCC1OC(c2ccc(F)c(Cc3cc4ccccc4s3)c2)C(O)C(O)C1O (stereo not drawn) [drawing 195] | 621 mg/200 g body weight of the rat |
| Cc1ccc(C2OC(CO)C(O)C(O)C2O)cc1Cc1ccc(-c2ccc(F)cc2)s1 (stereo not drawn) [drawing 196] | 655 mg/200 g body weight of the rat |
| OCC1OC(c2ccc(Cl)c(Cc3ccc(O[C@H]4CCOC4)cc3)c2)C(O)C(O)C1O (stereo partly drawn) [drawing 197] | 643 mg/200 g body weight of the rat |
| CCc1ccc(Cc2c(Cl)ccc3c2COC32OC(CO)C(O)C(O)C2O)cc1 (stereo not drawn) [drawing 198] | 587 mg/200 g body weight of the rat |
| CCOc1ccc(Cc2cc([C@]34OC[C@](CO)(O3)[C@@H](O)[C@H](O)[C@H]4O)ccc2Cl)cc1 [drawing 199] | 455 mg/200 g body weight of the rat |
| CCOc1ccc(Cc2cc(C3SC(CO)C(O)C(O)C3O)c(OC)cc2C)cc1 (stereo not drawn) [drawing 211] | 625 mg/200 g body weight of the rat |
| COc1ccc(Cc2cc(C3OC(C)C(O)C(O)C3O)ccc2Cl)cc1 (stereo not drawn) [drawing 213] | 736 mg/200 g body weight of the rat |
| CCOc1ccc(Cc2cc(C3OC(C)C(O)C(O)C3O)ccc2C)cc1 (stereo not drawn) [drawing 216] | 700 mg/200 g body weight of the rat |
| CCCOc1ccc(Cc2cc(C3OC(C)C(O)C(O)C3O)ccc2Cl)cc1 (stereo not drawn) [drawing 217] | 712 mg/200 g body weight of the rat |
| CCOc1ccc(Cc2cc(C3OC(C)C(O)C(O)C3O)ccc2Cl)cc1 (stereo not drawn) [drawing 219] | 833 mg/200 g body weight of the rat |
| CCOc1ccc(Cc2cc(C3OC(CO)CC(O)C3O)ccc2Cl)cc1 (stereo not drawn) [drawing 226] | 880 mg/200 g body weight of the rat |
| CCOc1ccc(Cc2cc(C3CC(O)C(O)C(CO)O3)ccc2Cl)cc1 (stereo not drawn) [drawing 227] | 811 mg/200 g body weight of the rat |
| Cc1ccc(C2OC(CO)CC(O)C2O)cc1Cc1ccc(-c2ccc(F)cc2)s1 (stereo not drawn) [drawing 228] | 801 mg/200 g body weight of the rat |
| Cc1ccc(C2CC(O)C(O)C(CO)O2)cc1Cc1ccc(-c2ccc(F)cc2)s1 (stereo not drawn) [drawing 229] | 698 mg/200 g body weight of the rat |
| CC1OC(c2ccc(F)c(Cc3cc4ccccc4s3)c2)C(O)C(O)C1O (stereo not drawn) [drawing 230] | 749 mg/200 g body weight of the rat |
| OCC1OC(c2ccc(Cl)c(Cc3ccc(O[C@H]4CCOC4)cc3)c2)C(O)CC1O (stereo partly drawn) [drawing 231] | 721 mg/200 g body weight of the rat |
| CC1OC(c2ccc(Cl)c(Cc3ccc(O[C@H]4CCOC4)cc3)c2)C(O)C(O)C1O (stereo partly drawn) [drawing 233] | 748 mg/200 g body weight of the rat |
| OCC1OC(c2ccc(Cl)c(Cc3ccc(O[C@H]4CCOC4)cc3)c2)CC(O)C1O (stereo partly drawn) [drawing 234] | 744 mg/200 g body weight of the rat |
| CCOc1ccc(Cc2cc(C3OC(CO)C(O)CC3O)ccc2Cl)cc1 (stereo not drawn) [drawing 237] | 828 mg/200 g body weight of the rat |
| Cc1ccc(C2OC(C)C(O)C(O)C2O)cc1Cc1ccc(-c2ccc(F)cc2)s1 (stereo not drawn) [drawing 238] | 723 mg/200 g body weight of the rat |
| Cc1ccc(C2OC(CO)C(O)CC2O)cc1Cc1ccc(-c2ccc(F)cc2)s1 (stereo not drawn) [drawing 239] | 772 mg/200 g body weight of the rat |
| OCC1OC(c2ccc(F)c(Cc3cc4ccccc4s3)c2)C(O)CC1O (stereo not drawn) [drawing 240] | 656 mg/200 g body weight of the rat |
| OCC1CC(O)C(O)C(c2ccc(F)c(Cc3cc4ccccc4s3)c2)O1 (stereo not drawn) [drawing 241] | 689 mg/200 g body weight of the rat |
